In patent US12521393B2, “Cytotoxicity targeting chimeras for CCR2-expressing cells” (GLAXOSMITHKLINE INTELLECTUAL PROPERTY DEVELOPMENT LIMITED, priority 2021, dated 2026):

Experiments:
[1] = tested on: endogenous target monocytes in human PBMC; assay: PBMC ex vivo monocyte depletion flow cytometry assay (Example 200); assay type: cell-based; conditions: with anti-cotinine antibody (SEQ ID NO: 11/12), 18-24 hours, EC50 in molar, read-out: Ex Vivo Depletion Assay pEC50 (converted)
Summary of the method: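 Monocyte depletion is reported as pEC50, averaged or given individually across runs, and read by flow cytometry staining CD45, CD14 and CD4 with a viability dye. Compounds, diluted four-fold over 11 points from 1 mM DMSO stocks, were combined with 30 μg/mL Fc-enhanced anti-cotinine antibody and human PBMC, then incubated 18-24 h at 37° C.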

[2] = tested on: CCR2 expressing cells (CD11b+Ly6c+Hi) in peripheral blood; assay: In vivo depletion assay, flow cytometry of peripheral blood (Example 201); set-up: species or system human CCR2 knock-in mice (C57 background); conditions: hCCR2 knock-in mice, IV 0.1 mpk compound + 10 mpk anti-cotinine antibody (SEQ ID NO: 13/14), peripheral blood at 48 hr
Summary of the method: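 Mice dosed with compound formulated in saline/DMSO/PBS, with anti-cotinine antibody (rabbit variable region, mouse IgG2a Fc) where required, pre-incubated 30 min at room temperature. Terminal peripheral blood RBC-lysed, Fc-blocked, stained for CD45, CD3, CD11b, Ly6C, human CCR2 and 7AAD; percent depletion of CD11b+Ly6c+Hi cells determined by flow cytometry.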

[3] = target: anti-cotinine antibody (SEQ ID NO: 11/12, rabbit variable region with human IgG1 Fc DE mutation); assay: SPR binding of anti-cotinine antibody to ARM compounds, Biacore T200, 37° C. (Example 202); conditions: SPR Biacore T200, 37° C., pH 7.4, antibody SEQ ID NO: 11/12 captured on protein A; Kd in molar
Summary of the method: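 Antibody captured on a protein A chip; ARM compounds injected at 100 μL/min (200 s association, 2000 s dissociation), 3-fold 5-point series from 200 nM, at 37 °C in HEPES pH 7.4 buffer with 0.005% P20 and 1% DMSO. Double-referenced sensorgrams fit 1:1 for kon, koff, Kd (koff/kon), residence time (1/koff); pKd averaged across runs.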

| SMILES | EC50 [1] [pM] | % Depletion of CCR2 expressing cells [2] [%] | pKd of Antibody for ARM Compound of Formula (I) [3] |
| --- | --- | --- | --- |
| CC(C)N(C)[C@@H]1CC[C@H](N2CC[C@H](Nc3ncnc4ccc(C(F)(F)F)cc34)C2=O)[C@H](NC(=O)COCCNC(=O)CCOCCNC(=O)CCOCCNC(=O)[C@H]2CC(=O)N(C)[C@@H]2c2cccnc2)C1 [Example 47, (2S,3S)-N-(1-(((1R,2S,5R)-5-(Isopropyl(methyl)amino)-2-((S)-2-oxo-3-((6-(trifluoromethyl)quinazolin-4-yl)amino)pyrrolidin-1-yl)cyclohexyl)amino)-1,7,14-trioxo-3,10,17-trioxa-6,13-diazanonadecan-19-yl)-1-methyl-5-oxo-2-(pyridin-3-yl)pyrrolidine-3-carboxamide] | 316 | 73 | 9.051 |
| CC(C)N(C)[C@@H]1CC[C@H](N2CC[C@H](Nc3ncnc4ccc(C(F)(F)F)cc34)C2=O)[C@H](NC(=O)[C@H]2C[C@@H](NC(=O)CCOC[C@H]3CC[C@H](COCCNC(=O)[C@H]4CC(=O)N(C)[C@@H]4c4cccnc4)CC3)C2)C1 [Example 55, (2S,3S)-N-(2-(((1S,4S)-4-((3-(((1S,3S)-3-(((1R,2S,5R)-5-(Isopropyl(methyl)amino)-2-((S)-2-oxo-3-((6-(trifluoromethyl)quinazolin-4-yl)amino)pyrrolidin-1-yl)cyclohexyl)carbamoyl)cyclobutyl)amino)-3-oxopropoxy)methyl)cyclohexyl)methoxy)ethyl)-1-methyl-5-oxo-2-(pyridin-3-yl)pyrrolidine-3-carboxamide] | 126 | 76.2 | 9.4085 |
| CC(C)N(C)[C@@H]1CC[C@H](N2CC[C@H](Nc3ncnc4ccc(C(F)(F)F)cc34)C2=O)[C@H](NC(=O)[C@H]2CC[C@@H](NC(=O)CCCOC[C@H]3CC[C@@H](COCCNC(=O)[C@H]4CC(=O)N(C)[C@@H]4c4cccnc4)CC3)CC2)C1 [Example 61, (2S,3S)-N-(2-(((1S,4R)-4-((4-(((1S,4S)-4-(((1R,2S,5R)-5-(Isopropyl(methyl)amino)-2-((S)-2-oxo-3-((6-(trifluoromethyl)quinazolin-4-yl)amino)pyrrolidin-1-yl)cyclohexyl)carbamoyl)cyclohexyl)amino)-4-oxobutoxy)methyl)cyclohexyl)methoxy)ethyl)-1-methyl-5-oxo-2-(pyridin-3-yl)pyrrolidine-3-carboxamide] | 316 | 92 | 9.558 |
| CC(C)N(C)[C@@H]1CC[C@H](N2CC[C@H](Nc3ncnc4ccc(C(F)(F)F)cc34)C2=O)[C@H](NC(=O)COCCNC(=O)CNC(=O)CCOCCOCCNC(=O)[C@H]2CC(=O)N(C)[C@@H]2c2cccnc2)C1 [Example 80, (2S,3S)-N-(1-(((1R,2S,5R)-5-(Isopropyl(methyl)amino)-2-((S)-2-oxo-3-((6-(trifluoromethyl)quinazolin-4-yl)amino)pyrrolidin-1-yl)cyclohexyl)amino)-1,7,10-trioxo-3,13,16-trioxa-6,9-diazaoctadecan-18-yl)-1-methyl-5-oxo-2-(pyridin-3-yl)pyrrolidine-3-carboxamide] | 3980 | 89 | 9.109 |
| CC(C)N(C)[C@@H]1CC[C@H](N2CC[C@H](Nc3ncnc4ccc(C(F)(F)F)cc34)C2=O)[C@H](Nc2c(NCCOCCOCCOCCOCCOCCNC(=O)[C@H]3CC(=O)N(C)[C@@H]3c3cccnc3)c(=O)c2=O)C1 [Example 85, (2S,3S)-N-(17-((2-(((1R,2S,5R)-5-(Isopropyl(methyl)amino)-2-((S)-2-oxo-3-((6-(trifluoromethyl)quinazolin-4-yl)amino)pyrrolidin-1-yl)cyclohexyl)amino)-3,4-dioxocyclobut-1-en-1-yl)amino)-3,6,9,12,15-pentaoxaheptadecyl)-1-methyl-5-oxo-2-(pyridin-3-yl)pyrrolidine-3-carboxamide] | 2000 | 57 | 9.6885 |
| CC(C)N(C)[C@@H]1CC[C@H](N2CC[C@H](Nc3ncnc4ccc(C(F)(F)F)cc34)C2=O)[C@H](NC(=O)[C@H]2CC[C@@H](NC(=O)CCOCCNC(=O)COCCNC(=O)[C@H]3CC(=O)N(C)[C@@H]3c3cccnc3)CC2)C1 [Example 98, (2S,3S)-N-(2-(2-((2-(3-(((1S,4s)-4-(((1R,2S,5R)-5-(Isopropyl(methyl)amino)-2-((S)-2-oxo-3-((6-(trifluoromethyl)quinazolin-4-yl)amino)pyrrolidin-1-yl)cyclohexyl)carbamoyl)cyclohexyl)amino)-3-oxopropoxy)ethyl)amino)-2-oxoethoxy)ethyl)-1-methyl-5-oxo-2-(pyridin-3-yl)pyrrolidine-3-carboxamide] | 398 | 88 | 9.0095 |
| CC(C)N(C)[C@@H]1CC[C@H](N2CC[C@H](Nc3ncnc4ccc(C(F)(F)F)cc34)C2=O)[C@H](NC(=O)CCOCCNC(=O)[C@H]2CC[C@H](NC(=O)COCCNC(=O)[C@H]3CC(=O)N(C)[C@@H]3c3cccnc3)CC2)C1 [Example 108, (2S,3S)-N-(2-(2-(((1R,4S)-4-((2-(3-(((1R,2S,5R)-5-(Isopropyl(methyl)amino)-2-((S)-2-oxo-3-((6-(trifluoromethyl)quinazolin-4-yl)amino)pyrrolidin-1-yl)cyclohexyl)amino)-3-oxopropoxy)ethyl)carbamoyl)cyclohexyl)amino)-2-oxoethoxy)ethyl)-1-methyl-5-oxo-2-(pyridin-3-yl)pyrrolidine-3-carboxamide] | 398 | 93 | 8.9855 |
| CC(C)N(C)[C@@H]1CC[C@H](N2CC[C@H](Nc3ncnc4ccc(C(F)(F)F)cc34)C2=O)[C@H](NC(=O)CCOCCOCCNC(=O)NCCOCCOCCNC(=O)[C@H]2CC(=O)N(C)[C@@H]2c2cccnc2)C1 [Example 119, (2S,3S)-N-(20-(((1R,2S,5R)-5-(Isopropyl(methyl)amino)-2-((S)-2-oxo-3-((6-(trifluoromethyl)quinazolin-4-yl)amino)pyrrolidin-1-yl)cyclohexyl)amino)-10,20-dioxo-3,6,14,17-tetraoxa-9,11-diazaicosyl)-1-methyl-5-oxo-2-(pyridin-3-yl)pyrrolidine-3-carboxamide] | 1580 | 77 | 9.1735 |
| CC(C)N(C)[C@@H]1CC[C@H](N2CC[C@H](Nc3ncnc4ccc(C(F)(F)F)cc34)C2=O)[C@H](NC(=O)[C@H]2CC[C@H](NC(=O)CCCOCCCCOCCNC(=O)[C@H]3CC(=O)N(C)[C@@H]3c3cccnc3)CC2)C1 [Example 121, (2S,3S)-N-(2-(4-(4-(((1R,4r)-4-(((1R,2S,5R)-5-(Isopropyl(methyl)amino)-2-((S)-2-oxo-3-((6-(trifluoromethyl)quinazolin-4-yl)amino)pyrrolidin-1-yl)cyclohexyl)carbamoyl)cyclohexyl)amino)-4-oxobutoxy)butoxy)ethyl)-1-methyl-5-oxo-2-(pyridin-3-yl)pyrrolidine-3-carboxamide] | 1260 | 69 | 9.332 |
| CC(C)N(C)[C@@H]1CC[C@H](N2CC[C@H](Nc3ncnc4ccc(C(F)(F)F)cc34)C2=O)[C@H](NC(=O)CCNC2CCC3(CC2)CCN(CCCNC(=O)[C@H]2CC(=O)N(C)[C@@H]2c2cccnc2)CC3)C1 [Example 138, (2S,3S)-N-(3-(9-((3-(((1R,2S,5R)-5-(Isopropyl(methyl)amino)-2-((S)-2-oxo-3-((6-(trifluoromethyl)quinazolin-4-yl)amino)pyrrolidin-1-yl)cyclohexyl)amino)-3-oxopropyl)amino)-3-azaspiro[5.5]undecan-3-yl)propyl)-1-methyl-5-oxo-2-(pyridin-3-yl)pyrrolidine-3-carboxamide] | 158 | 74.67 | 9.0865 |
| CC(C)N(C)[C@@H]1CC[C@H](N2CC[C@H](Nc3ncnc4ccc(C(F)(F)F)cc34)C2=O)[C@H](NC(=O)[C@H]2CC[C@@H](NC(=O)COCCNC(=O)CCOCCNC(=O)[C@H]3CC(=O)N(C)[C@@H]3c3cccnc3)CC2)C1 [Example 152, (2S,3S)-N-(2-(3-((2-(2-(((1S,4s)-4-(((1R,2S,5R)-5-(Isopropyl(methyl)amino)-2-((S)-2-oxo-3-((6-(trifluoromethyl)quinazolin-4-yl)amino)pyrrolidin-1-yl)cyclohexyl)carbamoyl)cyclohexyl)amino)-2-oxoethoxy)ethyl)amino)-3-oxopropoxy)ethyl)-1-methyl-5-oxo-2-(pyridin-3-yl)pyrrolidine-3-carboxamide] | 1260 | 82 | 9.111 |
